Assays:
[1] = molecular target: T1, RORγ-LBD (Homo sapiens, UniProt P51449); assay: RORγ-Ligand Binding Domain (LBD) TR-FRET Assay; format: biochemical; conditions: for EC50: in presence of 2 μM RORγ antagonist ursolic acid, SRC1 coactivator peptide; for TR-FRET Assay Max Response: upper plateau of 4-parameter fit, signal in the absence of ursolic acid or test compound set as 100
T1 construct: made in house; host or cells: SF9 cells, baculovirus expression system; used as diluted lysate
T1 sequence (P51449 269-508 limits assumed): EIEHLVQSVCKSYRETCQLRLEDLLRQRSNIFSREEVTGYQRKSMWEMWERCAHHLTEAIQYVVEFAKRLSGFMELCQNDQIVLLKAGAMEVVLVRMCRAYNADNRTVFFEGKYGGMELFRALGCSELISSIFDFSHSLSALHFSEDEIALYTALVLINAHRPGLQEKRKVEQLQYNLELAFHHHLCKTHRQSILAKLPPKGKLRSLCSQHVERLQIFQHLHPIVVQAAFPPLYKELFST
Experimental: HIS-tagged RORγ-LBD protein was expressed in SF9 cells using a baculovirus expression system. The lysate was diluted in assay buffer (50 mM Tris pH 7.0, 50 mM KCl, 1 mM EDTA, 0.1 mM DTT, 0.01% BSA) to obtain RORγ-LBD final concentration of ˜3 nM in a 384-well assay plate (need to titrate for each batch of protein).
A stock of biotinylated-LXXLL peptide from coactivator SRC1 (Biotin-[…]) was prepared in assay buffer and added to each well (200 nM final concentration). A solution of Europium tagged anti-HIS antibody (0.6 nM final concentration) and APC-conjugated streptavidin (30 nM final concentration) were also added to each well. RORγ antagonist ursolic acid was also included at a final concentration of 2 μM. Compounds were diluted in DMSO and further diluted in assay buffer with a final DMSO concentration at 1%.
The final assay mixture was incubated overnight at 4° C. or 2 hours at room temperature, and the fluorescence signal was measured on an Envision plate reader: (Excitation filter=340 nm; APC emission=665 nm; Europium emission=615 nm; dichroic mirror=D400/D630; delay time=100 μs, integration time=200 μs). 50% Effective concentration (EC50) values for test compounds were calculated from the quotient of the fluorescence signal at 665 nm divided by the fluorescence signal at 615 nm. The quotient of the fluorescence signals in the absence of ursolic acid or test compound is set as 100. Max Response is defined as the upper plateau in the signal as determined by line-fit using a 4-parameter logistic model in PRISM (GraphPad).

[2] = molecular target: T2, Gal4-RORγ-LBD (Homo sapiens, UniProt P51449); assay: Gal4-RORγ Luciferase Reporter Assay in HEK-293T Cells; format: cell-based; conditions: for EC50: HEK-293 cells, in presence of 2 μM ursolic acid, overnight incubation, read-out: Ga14-RORγ Assay EC50; for Ga14-RORγ Assay Max Response: upper plateau of 4-parameter fit, luciferase signal in the absence of ursolic acid or test compound defined at 100
T2 construct: expressed in transfected cells; pcDNA3.1neo plasmid, co-transfected with pGL4.31 Gal4-luciferase reporter
T2 sequence (P51449 269-508 limits assumed): T1 sequence (P51449 269-508 limits assumed)
Experimental: In the following protocol, HEK-293 cells were transfected with a construct comprising the Gal4 DNA binding domain fused to the ligand binding domain of RORγ (Gal4-RORγ-LBD) in a pcDNA3.1neo plasmid, and also with a reporter construct comprising pGL4.31 Gal4-luciferase (Promega). Control cells were prepared similarly using empty pcDNA3.1neo and pGL4.31 vectors.
Trans-IT reagent (Mirus, 60 μL) at room temperature was added drop wise to OptiMEM (Invitrogen, 1.5 ml). This reagent mixture was mixed by inversion then incubated for 5 to 30 minutes at room temperature. It then was added to a solution of both expression vectors (5 μg each), mixed, and incubated at room temperature for about 20 minutes. HEK-293 cells were harvested from incubation flasks by removing the media, treating with TrypLE Express (Invitrogen), and incubating until the cells detached from the bottom of the flask (approximately 2-5 minutes). 10 Million cells were collected by centrifugation and re-suspended in 10 mL of Dulbecco's Modified Eagle Medium, High Glucose (DMEM, Invitrogen) containing 10% Fetal Bovine Serum and 100 IU each of penicillin and streptomycin. The re-suspended cells and the transfection mixture were added to a T75 flask, mixed and incubated overnight at 37° C. and 5% CO2.
The cells were harvested as described above, counted, and centrifuged to obtain the desired number of cells, then re-suspended in complete growth media at 0.75×10^6 cells/mL. The RORγ antagonist, ursolic acid, was added to the cells at a final concentration of 2 μM. Cells were plated at 20 μL of cell suspension/well (10,000-15,000 cells/well) in white tissue culture treated 384 well plates. Test compounds were dissolved at 10 mM in DMSO then diluted into complete growth medium to 5× the final intended test concentration. These drug stock solutions, 5 μL/well were added to the tissue culture plate. The final DMSO concentration was 0.2%. The plates were briefly centrifuged then incubated overnight at 37° C. and 5% CO2. To conduct the assay, the tissue culture plates were allowed to equilibrate to room temperature and One-Glo luciferase reagent (Promega, 25 μL/well) was added. The plates were briefly centrifuged then incubated at room temperature for 10 minutes. The luciferase intensity was read on an Envision plate reader (Perkin Elmer). RORγ activity was determined relative to controls and plotted as a function of test compound concentration using PRISM (GraphPad) to determine a 50% effective concentration (EC50). The luciferase signal in the absence of ursolic acid or test compound is defined at 100. The Max Response is the upper plateau in the signal as determined by line-fit using a 4-parameter logistic model in PRISM (GraphPad).

C/C(=C\c1ccc2c(c1)N(S(=O)(=O)c1cccc(C(F)(F)F)c1)C[C@H](Oc1noc(=O)[nH]1)C2)c1c(F)cccc1Cl
EC50 [1]: 100 to 5000 nM | TR-FRET Assay Max Response [1]: *** (a value in the range of greater than 150 to 200) | EC50 [2]: 100 to 5000 nM | Ga14-RORγ Assay Max Response [2]: ** (a value in the range of greater than 90 to 150)

C/C(=C\c1ccc2c(c1)N(S(=O)(=O)c1cccc(C(F)(F)F)c1)C[C@H](Oc1n[nH]c(=O)[nH]1)C2)c1c(F)cccc1Cl
EC50 [1]: < 100 nM | TR-FRET Assay Max Response [1]: *** (a value in the range of greater than 150 to 200) | EC50 [2]: 5000 to 10000 nM | Ga14-RORγ Assay Max Response [2]: ** (a value in the range of greater than 90 to 150)

C/C(=C\c1ccc2c(c1)N(S(=O)(=O)c1cccc(C(F)(F)F)c1)[C@H](C)[C@H](Cn1ccnc1)C2)c1c(F)cccc1Cl
EC50 [1]: < 100 nM | TR-FRET Assay Max Response [1]: *** (a value in the range of greater than 150 to 200) | EC50 [2]: 100 to 5000 nM | Ga14-RORγ Assay Max Response [2]: ** (a value in the range of greater than 90 to 150)

C/C(=C\c1ccc2c(c1)N(S(=O)(=O)c1cccc(C(F)(F)F)c1)C[C@H](CCc1noc(=O)[nH]1)O2)c1c(F)cccc1Cl
EC50 [1]: < 100 nM | TR-FRET Assay Max Response [1]: *** (a value in the range of greater than 150 to 200) | EC50 [2]: 100 to 5000 nM | Ga14-RORγ Assay Max Response [2]: *** (a value in the range of greater than 150 to 200)

C/C(=C\c1ccc2c(c1)N(S(=O)(=O)c1cccc(C(F)(F)F)c1)C[C@H](CCn1ccnc1)O2)c1c(F)cccc1Cl
EC50 [1]: < 100 nM | TR-FRET Assay Max Response [1]: *** (a value in the range of greater than 150 to 200) | EC50 [2]: 100 to 5000 nM | Ga14-RORγ Assay Max Response [2]: ** (a value in the range of greater than 90 to 150)

C/C(=C\c1ccc2c(c1)N(S(=O)(=O)c1cccc(C(F)(F)F)c1)C[C@H](CCCn1ccnc1)O2)c1c(F)cccc1Cl
EC50 [1]: < 100 nM | TR-FRET Assay Max Response [1]: *** (a value in the range of greater than 150 to 200) | EC50 [2]: 100 to 5000 nM | Ga14-RORγ Assay Max Response [2]: ** (a value in the range of greater than 90 to 150)

C/C(=C\c1ccc2c(c1)N(S(=O)(=O)c1cccc(C(F)(F)F)c1)C[C@H](CCn1ccnn1)O2)c1c(F)cccc1Cl
EC50 [1]: < 100 nM | TR-FRET Assay Max Response [1]: *** (a value in the range of greater than 150 to 200) | EC50 [2]: 100 to 5000 nM | Ga14-RORγ Assay Max Response [2]: ** (a value in the range of greater than 90 to 150)

C/C(=C\c1ccc2c(c1)N(S(=O)(=O)c1cccc(C(F)(F)F)c1)C[C@H](CCn1cc(C(=O)O)nn1)O2)c1c(F)cccc1Cl
EC50 [1]: < 100 nM | TR-FRET Assay Max Response [1]: *** (a value in the range of greater than 150 to 200) | EC50 [2]: 100 to 5000 nM | Ga14-RORγ Assay Max Response [2]: *** (a value in the range of greater than 150 to 200)

O=c1[nH]nc(CC[C@H]2CN(S(=O)(=O)c3cccc(C(F)(F)F)c3)c3cc(/C=C/c4c(Cl)cccc4C(F)(F)F)ccc3O2)o1
EC50 [1]: < 100 nM | TR-FRET Assay Max Response [1]: *** (a value in the range of greater than 150 to 200) | EC50 [2]: 100 to 5000 nM | Ga14-RORγ Assay Max Response [2]: ** (a value in the range of greater than 90 to 150)

C[C@@H]1[C@H](n2cc[nH]c2=O)Cc2ccc(/C=C/c3c(F)cccc3C(F)(F)F)cc2N1S(=O)(=O)c1cccc(C(F)(F)F)c1
EC50 [1]: 100 to 5000 nM | TR-FRET Assay Max Response [1]: *** (a value in the range of greater than 150 to 200) | EC50 [2]: 100 to 5000 nM | Ga14-RORγ Assay Max Response [2]: ** (a value in the range of greater than 90 to 150)

C/C(=C\c1ccc2c(c1)N(S(=O)(=O)c1cccc(C(F)(F)F)c1)C[C@H](Cc1n[nH]c(=O)o1)O2)c1c(F)cccc1Cl
EC50 [1]: < 100 nM | TR-FRET Assay Max Response [1]: *** (a value in the range of greater than 150 to 200) | EC50 [2]: 100 to 5000 nM | Ga14-RORγ Assay Max Response [2]: * (a value in the range of 40 to 90)

O=c1[nH]nc(CC[C@H]2CN(S(=O)(=O)c3cccc(C(F)(F)F)c3)c3cc(/C=C/c4ncccc4C(F)(F)F)ccc3O2)o1
EC50 [1]: < 100 nM | TR-FRET Assay Max Response [1]: *** (a value in the range of greater than 150 to 200) | EC50 [2]: 100 to 5000 nM | Ga14-RORγ Assay Max Response [2]: ** (a value in the range of greater than 90 to 150)

COc1cc(S(=O)(=O)N2C[C@H](CCc3n[nH]c(=O)o3)Oc3ccc(/C=C(\C)c4c(F)cccc4Cl)cc32)ccc1F
EC50 [1]: < 100 nM | TR-FRET Assay Max Response [1]: ** (a value in the range of greater than 90 to 150) | EC50 [2]: 100 to 5000 nM | Ga14-RORγ Assay Max Response [2]: ** (a value in the range of greater than 90 to 150)

CCOc1nn(CC)cc1S(=O)(=O)N1C[C@H](CCc2n[nH]c(=O)o2)Oc2ccc(/C=C(\C)c3c(F)cccc3Cl)cc21
EC50 [1]: < 100 nM | TR-FRET Assay Max Response [1]: *** (a value in the range of greater than 150 to 200) | EC50 [2]: 100 to 5000 nM | Ga14-RORγ Assay Max Response [2]: *** (a value in the range of greater than 150 to 200)

C/C(=C\c1ccc2c(c1)N(S(=O)(=O)c1cccc(C(F)(F)F)c1)C[C@H](CCOc1noc(=O)[nH]1)O2)c1c(F)cccc1Cl
EC50 [1]: < 100 nM | TR-FRET Assay Max Response [1]: *** (a value in the range of greater than 150 to 200) | EC50 [2]: 100 to 5000 nM | Ga14-RORγ Assay Max Response [2]: ** (a value in the range of greater than 90 to 150)

C/C(=C\c1ccc2c(c1)N(S(=O)(=O)c1cccc(OC(F)F)c1)C[C@H](CCOc1noc(=O)[nH]1)O2)c1c(F)cccc1Cl
EC50 [1]: < 100 nM | TR-FRET Assay Max Response [1]: *** (a value in the range of greater than 150 to 200) | EC50 [2]: 100 to 5000 nM | Ga14-RORγ Assay Max Response [2]: ** (a value in the range of greater than 90 to 150)

CCn1cc(S(=O)(=O)N2C[C@H](CCOc3noc(=O)[nH]3)Oc3ccc(/C=C(\C)c4c(F)cccc4Cl)cc32)c(Cl)n1
EC50 [1]: < 100 nM | TR-FRET Assay Max Response [1]: *** (a value in the range of greater than 150 to 200) | EC50 [2]: 100 to 5000 nM | Ga14-RORγ Assay Max Response [2]: *** (a value in the range of greater than 150 to 200)

CCOc1nn(CC)cc1S(=O)(=O)N1C[C@H](CCOc2noc(=O)[nH]2)Oc2ccc(/C=C(\C)c3c(F)cccc3Cl)cc21
EC50 [1]: < 100 nM | TR-FRET Assay Max Response [1]: *** (a value in the range of greater than 150 to 200) | EC50 [2]: 100 to 5000 nM | Ga14-RORγ Assay Max Response [2]: ** (a value in the range of greater than 90 to 150)

COc1cc(S(=O)(=O)N2C[C@H](CCOc3noc(=O)[nH]3)Oc3ccc(/C=C(\C)c4c(F)cccc4Cl)cc32)ccc1F
EC50 [1]: < 100 nM | TR-FRET Assay Max Response [1]: *** (a value in the range of greater than 150 to 200) | EC50 [2]: 100 to 5000 nM | Ga14-RORγ Assay Max Response [2]: **** (a value greater than 200)

Reference: patent publication US10421751B2, “Dihydro-2H-benzo[b][1,4]oxazine sulfonamide and related compounds for use as agonists of RORγ and the treatment of disease” (Lycera Corporation, priority 2015, dated 2019)
